Values quoted from earlier work, collected in patent US4150121A, “Kinin containing injection composition” (THERA Gesellschaft fur Patentverwertung mbH, priority 1976, dated 1979).
Where a SMILES comes first, the peptide text is derived from it.

Conditions: intracutaneous injection

Compound	amount causing vehement pain reactions
NC(N)=NCCC[C@H](NC(=O)[C@H](Cc1ccccc1)NC(=O)[C@@H]1CCCN1C(=O)[C@H](CO)NC(=O)[C@H](Cc1ccccc1)NC(=O)CNC(=O)[C@@H]1CCCN1C(=O)[C@@H]1CCCN1C(=O)[C@@H](N)CCCN=C(N)N)C(=O)O [Bradykinin, (NH2) arginine - proline - proline -glycine - phenylalanine - serine - proline - phenylalanine - arginine (COOH)] (H-RPPGFSPFR-OH)	about 0.1 microgram in 1 milliliter of solution
kallidin: decapeptide kinin: Brady kinin extended at the amino end by an additional lysine residue	about 0.1 microgram in 1 milliliter of solution
